Reference: PubChem BioAssay (NCI)
“And” between values parts separate entries of the source, which are not always exact repeats. Equal entries are not always repeated.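 These data come from cells grown in 96-well plates and exposed to compound for 48 hours at five concentrations. GI50 marks 50% less growth. TGI: concentration producing complete growth inhibition.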

Assays:
Assay in all cases: inhibition of tumour cell growth, NCI panel, 48 h
NCI-H226 lung = test system: NCI-H226 lung
HOP-92 NSCLC = test system: HOP-92 NSCLC
OVCAR-8 ovarian = test system: OVCAR-8 ovarian
SF-539 CNS = test system: SF-539 CNS
NCI/ADR-RES ovarian = test system: NCI/ADR-RES ovarian
UACC-62 melanoma = test system: UACC-62 melanoma
M14 melanoma = test system: M14 melanoma
SK-MEL-2 melanoma = test system: SK-MEL-2 melanoma
MALME-3M melanoma = test system: MALME-3M melanoma
PC-3 prostate = test system: PC-3 prostate

## Cc1cc(O)c(C2=NN(c3ccc(S(N)(=O)=O)cc3)C(/C=C/c3ccccc3)C2)cc1Cl (stereo not given)
NCI-H226 lung
  GI50: 5.21 µM
  TGI: 19.2 µM
HOP-92 NSCLC
  GI50: 2.36 µM
  TGI: 8.48 µM
OVCAR-8 ovarian
  GI50: 3.03 µM
  TGI: 20.2 µM
SF-539 CNS
  GI50: 2.98 µM
  TGI: 14 µM
NCI/ADR-RES ovarian
  GI50: 9.26 µM
  TGI: 22.7 µM
UACC-62 melanoma
  GI50: 2.89 µM
  TGI: 11.4 µM
M14 melanoma
  GI50: 6.16 µM
  TGI: 19.3 µM
SK-MEL-2 melanoma
  GI50: 16.8 µM
  TGI: 58.2 µM
MALME-3M melanoma
  GI50: 3.01 µM
  TGI: 17.4 µM
PC-3 prostate
  GI50: 3.15 µM
  TGI: 11.5 µM

## Cc1nc2ccccc2nc1N=Nc1ccccc1
NCI-H226 lung
  GI50: 24.6 µM
  TGI: > 100 µM
HOP-92 NSCLC
  GI50: 3.03 µM
  TGI: 43.9 µM
OVCAR-8 ovarian
  GI50: 22.4 µM
  TGI: > 100 µM
SF-539 CNS
  GI50: 27.9 µM
  TGI: > 100 µM
NCI/ADR-RES ovarian
  GI50: 16 µM
  TGI: 57.6 µM
UACC-62 melanoma
  GI50: 14.2 µM
  TGI: 35.2 µM
M14 melanoma
  GI50: 17.7 µM
  TGI: 44.8 µM
SK-MEL-2 melanoma
  GI50: 24 µM
  TGI: 61.3 µM
MALME-3M melanoma
  GI50: 20.8 µM
  TGI: 65.7 µM
PC-3 prostate
  GI50: 6.57 µM
  TGI: 60.2 µM

## CCCCCCNCc1cc(C(C)(C)C)cc(CNCCCCCC)c1O
NCI-H226 lung
  GI50: 1.69 µM
  TGI: 3.36 µM
HOP-92 NSCLC
  GI50: 0.549 µM
  TGI: 2.04 µM
OVCAR-8 ovarian
  GI50: 1.75 µM
  TGI: 3.37 µM
SF-539 CNS
  GI50: 1.64 µM
  TGI: 3.09 µM
NCI/ADR-RES ovarian
  GI50: 1.75 µM
  TGI: 3.24 µM
UACC-62 melanoma
  GI50: 1.55 µM
  TGI: 2.91 µM
M14 melanoma
  GI50: 1.75 µM
  TGI: 3.18 µM
SK-MEL-2 melanoma
  GI50: 1.98 µM
  TGI: 3.52 µM
MALME-3M melanoma
  GI50: 1.74 µM
  TGI: 3.43 µM
PC-3 prostate
  GI50: 1.53 µM
  TGI: 2.9 µM

## COC(=O)C(C(=O)OC)C(Br)C(Br)C(Br)c1ccccc1 (stereo not given)
NCI-H226 lung
  GI50: 15.1 µM
  TGI: 29.5 µM
HOP-92 NSCLC
  GI50: 11.8 µM
  TGI: 25.3 µM
OVCAR-8 ovarian
  GI50: 4.86 µM
  TGI: 17.2 µM
SF-539 CNS
  GI50: 18.2 µM
  TGI: 33.7 µM
NCI/ADR-RES ovarian
  GI50: 17.8 µM
  TGI: 42.4 µM
UACC-62 melanoma
  GI50: 9.46 µM
  TGI: 21.5 µM
M14 melanoma
  GI50: 12.9 µM
  TGI: 27.5 µM
SK-MEL-2 melanoma
  GI50: 5.92 µM
  TGI: 19.2 µM
MALME-3M melanoma
  GI50: 2.34 µM
  TGI: 4.92 µM
PC-3 prostate
  GI50: 11.5 µM
  TGI: 24.6 µM

## CC(=O)OC1=CC2(OC(C)=O)CC(C)(C)C1C1C(=O)C=CC(=O)C12 (stereo not given)
NCI-H226 lung
  TGI: > 100 µM
HOP-92 NSCLC
  TGI: > 100 µM
OVCAR-8 ovarian
  TGI: > 100 µM
SF-539 CNS
  TGI: > 71 µM
NCI/ADR-RES ovarian
  TGI: > 100 µM
UACC-62 melanoma
  TGI: 56.7 µM
M14 melanoma
  TGI: > 100 µM
SK-MEL-2 melanoma
  TGI: > 100 µM
MALME-3M melanoma
  TGI: 38.9 µM
PC-3 prostate
  TGI: > 100 µM

## CC(=O)/C=C/c1ccc(OCc2ccc(Cl)cc2)cc1
NCI-H226 lung
  GI50: > 1000 µM
  TGI: > 1000 µM
HOP-92 NSCLC
  GI50: 372 µM
  TGI: > 1000 µM
OVCAR-8 ovarian
  GI50: 613 µM
  TGI: > 1000 µM
SF-539 CNS
  GI50: > 1000 µM
  TGI: > 1000 µM
NCI/ADR-RES ovarian
  GI50: 395 µM
  TGI: > 1000 µM
UACC-62 melanoma
  GI50: 218 µM
  TGI: > 1000 µM
M14 melanoma
  GI50: 559 µM
  TGI: > 1000 µM
SK-MEL-2 melanoma
  GI50: 473 µM
  TGI: > 1000 µM
MALME-3M melanoma
  GI50: 330 µM
  TGI: > 1000 µM
PC-3 prostate
  GI50: 725 µM
  TGI: > 1000 µM

## O=[N+]([O-])c1cc([N+](=O)[O-])c(Cl)cc1Cl
NCI-H226 lung
  GI50: 2.22 µM
  TGI: 5.78 µM
HOP-92 NSCLC
  GI50: 1.59 µM
  TGI: 4.11 µM
OVCAR-8 ovarian
  GI50: 1.27 µM
  TGI: 2.91 µM
SF-539 CNS
  GI50: 1.73 µM
  TGI: 3.49 µM
NCI/ADR-RES ovarian
  GI50: 1.32 µM
  TGI: 2.94 µM
UACC-62 melanoma
  GI50: 1.88 µM
  TGI: 3.82 µM
M14 melanoma
  GI50: 1.73 µM
  TGI: 3.59 µM
SK-MEL-2 melanoma
  GI50: 1.83 µM
  TGI: 3.44 µM
MALME-3M melanoma
  GI50: 2.05 µM
  TGI: 4.27 µM
PC-3 prostate
  GI50: 1.35 µM
  TGI: 2.88 µM

## O=C1c2cccnc2C(=O)c2c1c(C(=O)OCCCN1CCCCC1)c1ccccn21
NCI-H226 lung
  GI50: < 0.01 µM
  TGI: 0.0318 µM
HOP-92 NSCLC
  GI50: 0.0512 µM
  TGI: 0.913 µM
OVCAR-8 ovarian
  GI50: 0.0102 µM
  TGI: 1.19 µM
SF-539 CNS
  GI50: < 0.0106 µM
  TGI: 0.0435 µM
NCI/ADR-RES ovarian
  GI50: < 0.01 µM
  TGI: 0.225 µM
UACC-62 melanoma
  GI50: < 0.01 µM
  TGI: 0.0478 µM
M14 melanoma
  GI50: < 0.01 µM
  TGI: 0.0384 µM
SK-MEL-2 melanoma
  GI50: 0.0303 µM
  TGI: 0.0808 µM
MALME-3M melanoma
  GI50: < 0.0158 µM
  TGI: 0.0682 µM
PC-3 prostate
  GI50: < 0.0183 µM
  TGI: 0.389 µM

## CCc1nc(N)nc(N)c1-c1ccc(Cl)c(N=[N+]=[N-])c1
NCI-H226 lung
  TGI: > 100 µM
HOP-92 NSCLC
  TGI: > 90.7 µM and 68.2 µM
OVCAR-8 ovarian
  GI50: 15.4 µM and 4.79 µM
  TGI: > 100 µM
SF-539 CNS
  TGI: > 39.9 µM and 65.3 µM
NCI/ADR-RES ovarian
  TGI: 63.9 µM and 99.4 µM
UACC-62 melanoma
  GI50: 0.78 µM and 3.13 µM
  TGI: 24.8 µM and 26.8 µM
M14 melanoma
  GI50: 0.641 µM and 3.51 µM
  TGI: 24.1 µM and 49 µM
SK-MEL-2 melanoma
  TGI: 41.3 µM and 43.7 µM
MALME-3M melanoma
  GI50: 14 µM and 6.3 µM
  TGI: 30.2 µM and 23.5 µM
PC-3 prostate
  GI50: 12.6 µM and 2.06 µM
  TGI: > 100 µM

## NC1(Cc2ccc(Cl)cc2)CCN(c2ncnc3[nH]ccc23)CC1
NCI-H226 lung
  GI50: 6.96 µM
  TGI: 25.1 µM
HOP-92 NSCLC
  GI50: 1.09 µM
  TGI: 7.06 µM
OVCAR-8 ovarian
  GI50: 11.1 µM
  TGI: 25.4 µM
SF-539 CNS
  GI50: 2.21 µM
  TGI: 12.6 µM
NCI/ADR-RES ovarian
  GI50: 9.97 µM
  TGI: 26.5 µM
UACC-62 melanoma
  GI50: 5.85 µM
  TGI: 20.4 µM
M14 melanoma
  GI50: 8.58 µM
  TGI: 23.6 µM
SK-MEL-2 melanoma
  GI50: 14.6 µM
  TGI: 31 µM
MALME-3M melanoma
  GI50: 6.3 µM
  TGI: 21.6 µM
PC-3 prostate
  GI50: 2.99 µM
  TGI: 23.5 µM

## CC(C)(C)OC(=O)NCc1cccc(N=C=S)c1
NCI-H226 lung
  GI50: 19.1 µM
  TGI: 51.4 µM
HOP-92 NSCLC
  GI50: 14.6 µM
  TGI: 62.2 µM
OVCAR-8 ovarian
  GI50: 29.6 µM
  TGI: > 92.7 µM
SF-539 CNS
  GI50: 21.1 µM
  TGI: 59.7 µM
NCI/ADR-RES ovarian
  GI50: 26.2 µM
  TGI: 79.4 µM
UACC-62 melanoma
  GI50: 14.4 µM
  TGI: 30.6 µM
M14 melanoma
  GI50: 15.3 µM
  TGI: 37 µM
SK-MEL-2 melanoma
  GI50: 21.3 µM
  TGI: 45.7 µM
MALME-3M melanoma
  GI50: 14.4 µM
  TGI: 45.1 µM
PC-3 prostate
  GI50: 21.5 µM
  TGI: 51.8 µM

## C=Cn1c([N+](=O)[O-])cnc1/C=C/c1ccc(C(=O)OCCN2CCOCC2)cc1
NCI-H226 lung
  TGI: > 100 µM
HOP-92 NSCLC
  TGI: > 100 µM
OVCAR-8 ovarian
  TGI: > 100 µM
SF-539 CNS
  TGI: > 100 µM
NCI/ADR-RES ovarian
  TGI: > 100 µM
UACC-62 melanoma
  TGI: > 100 µM
M14 melanoma
  TGI: > 100 µM
SK-MEL-2 melanoma
  TGI: > 100 µM
MALME-3M melanoma
  TGI: > 100 µM
PC-3 prostate
  TGI: > 100 µM

## NC(=O)c1sc(-n2cnc3cc(C(F)(F)F)ccc32)cc1OCc1ccccc1Br
NCI-H226 lung
  GI50: > 17.2 µM
  TGI: > 25 µM
HOP-92 NSCLC
  GI50: 8.02 µM
  TGI: > 25 µM
OVCAR-8 ovarian
  GI50: 21.4 µM
  TGI: > 25 µM
SF-539 CNS
  GI50: 24.9 µM
  TGI: > 25 µM
NCI/ADR-RES ovarian
  GI50: > 17.4 µM
  TGI: > 25 µM
UACC-62 melanoma
  GI50: > 21.6 µM
  TGI: > 25 µM
M14 melanoma
  GI50: > 25 µM
  TGI: > 25 µM
SK-MEL-2 melanoma
  GI50: > 25 µM
  TGI: > 25 µM
MALME-3M melanoma
  GI50: > 16.2 µM
  TGI: > 25 µM
PC-3 prostate
  GI50: > 20.4 µM
  TGI: > 25 µM
